Assays:
hIL-6 mRNA = assay: Quantification of hIL-6 mRNA in LPS-stimulated U937 macrophages (real-time PCR); type: cell-based, human; design: key: Active: an active compound is one that causes a ≧20% inhibition in IL-6 mRNA at a concentration less than or equal to 10 μM; settings: U937 cells differentiated with PMA, 1 h pretreatment, LPS 1 μg/mL, 3 h; IL-6 mRNA normalised to hCyclophilin; compound ≤10 μM
Experimental: In this example, hIL-6 mRNA in tissue culture cells was quantitated to measure the transcriptional inhibition of hIL-6 when treated with a compound of the invention.
A human leukemic monocytic lymphoma cell line (U937) was plated (3.2×10^5 cells per well) in a 96-well plate in 100 μL RPMI 1640+10% FBS, and differentiated into macrophages with PMA (60 ng/mL) for 3 days prior to the addition of the compound of interest. The cells were pretreated for 1 h with the test compound in DMSO prior to stimulation with lipopolysaccharide from Escherichia coli at 1 μg/mL. The cells were incubated for 3 h before harvest. At the time of harvest, cells were rinsed in 200 μL PBS. Cell lysis solution (70 μL) was added the cells for 10 min, and mRNA was then prepared using the “mRNA Catcher PLUS plate” (Invitrogen), according to the protocol supplied.
The eluted mRNA isolated was then used in a one-step quantitative real-time PCR reaction, using components of the UltraSense kit together with Applied Biosystems primer-probe mixes. 10 μL of template was amplified with 1.75 μL of IL-6 primer-probe, and 1 μL of hCyclophilin primer probe, and the reaction was carried out in multiplex. Real-time PCR data was analyzed, normalizing the Ct values for hIL-6 to hCyclophilin, prior to determining the fold induction of each unknown sample, relative to the control.

hVCAM-1 mRNA = assay: Quantification of hVCAM-1 mRNA in TNF-α-stimulated HUV-EC-C cells (real-time PCR); type: cell-based, human; design: key: Active: an active compound is one that causes a ≧20% inhibition in VCAM-1 mRNA at a concentration less than or equal to 10 μM; settings: 1 h pretreatment, TNF-α 10 ng/mL, 24 h, VCAM-1 mRNA normalised to hCyclophilin, compound ≤10 μM
Experimental: In this example, hVCAM-1 mRNA in tissue culture cells was quantitated to measure the transcriptional inhibition of hVCAM when treated with a compound of the invention.
A human umbilical vein endothelial cell line (HUV-EC-C) was plated in a 96-well plate (5.0×10^3 cells/well) in 100 μL EGM complete media and incubated for 24 h prior to the addition of the compound of interest. The cells were pretreated for 1 h with the test compound in DMSO prior to stimulation with tumor necrosis factor-α (10 ng/mL). The cells were incubated for an additional 24 h before harvest. At time of harvest, the cells were rinsed in 200 μL PBS, and cell lysis solution (70 μL) was then added the cells for 10 min. mRNA was then prepared using the “mRNA Catcher PLUS plate” (Invitrogen), according to the protocol supplied.
The eluted mRNA was then used in a one-step quantitative real-time PCR reaction, using components of the UltraSense kit together with Applied Biosystems primer-probe mixes. 10 μL of template was amplified with 1.75 μL of hVCAM-1 primer-probe, and 1 μL of hCyclophilin primer probe, and the reaction was carried out in multiplex. Real-time PCR data was analyzed, normalizing the Ct values for hVCAM-1 to hCyclophilin, prior to determining the fold induction of each unknown sample, relative to the control.

With `COc1cc(OCCN(C)C)c2c(=O)[nH]c(-c3cc(C)c(O)c(C)c3)nc2c1` [Example 1, 5-(2-dimethylamino-ethoxy)-2(4-hydroxy-3,5-dimethylphenyl)-7-methoxy-3H-quinazolin-4-one] the “Inhibition of IL-6 expression” value (hIL-6 mRNA) was “Active”.

`COCCOc1cc(OC)cc2nc(-c3cc(C)c(O)c(C)c3)[nH]c(=O)c12` [Example 2, 2-(4-hydroxy-3,5-dimethyl-phenyl)-7-methoxy-5-(2-methoxy-ethoxy)-3H-quinazolin-4-one] was tested, and the “Inhibition of IL-6 expression” value (hIL-6 mRNA) was “Active”.

In the case of `COc1cc(OCCN)cc2nc(-c3cc(C)c(O)c(C)c3)[nH]c(=O)c12` [Example 3, 7-(2-amino-ethoxy)-2-(4-hydroxy-3,5-dimethyl-phenyl)-5-methoxy-3H-quinazolin-4-one], the “Inhibition of VCAM-1 expression” value (hVCAM-1 mRNA) is reported as “Active” and the “Inhibition of IL-6 expression” value (hIL-6 mRNA) is reported as “Active”.

In the case of `COCCOc1cc(OC)c2c(=O)[nH]c(-c3cc(C)c(O)c(C)c3)nc2c1` [Example 4, 2-(4-hydroxy-3,5-dimethyl-phenyl)-5-methoxy-7-(2-methoxy-ethoxy)-3H-quinazolin-4-one], the “Inhibition of VCAM-1 expression” value (hVCAM-1 mRNA) is reported as “Active” and the “Inhibition of IL-6 expression” value (hIL-6 mRNA) is reported as “Active”.

In the case of `COc1cc(OCCOCc2cccnc2)cc2nc(-c3cc(C)c(O)c(C)c3)[nH]c(=O)c12` [Example 6, 2-(4-hydroxy-3,5-dimethylphenyl)-5-methoxy-7-[2-(pyridin-3-ylmethoxy)ethoxy]-3H-quinazolin-4-one], the “Inhibition of IL-6 expression” value (hIL-6 mRNA) is reported as “Active”.

In the case of `Cc1cc(-c2nc3ccc(Nc4ccncc4)cc3c(=O)[nH]2)cc(C)c1O` [Example 8, 2-(4-hydroxy-3,5-dimethyl-phenyl)-6-(pyridin-4-ylamino)-3H-quinazolin-4-one], the “Inhibition of IL-6 expression” value (hIL-6 mRNA) is reported as “Active”.

`Cc1cc(-c2nc3ccc(CNS(C)(=O)=O)cc3c(=O)[nH]2)cc(C)c1O` [Example 11, N-((2-(4-hydroxy-3,5-dimethylphenyl)-4-oxo-3,4-dihydroquinazolin-6-yl)methyl)methanesulfonamide] was tested, and the “Inhibition of IL-6 expression” value (hIL-6 mRNA) was “Active”.

For `Cc1cc(-c2nc3ccc(N4CCOCC4)cc3c(=O)[nH]2)cc(C)c1OCCO` [Example 12, 2-(4-(2-hydroxyethoxy)-3,5-dimethylphenyl)-6-morpholinoquinazolin-4(3H)-one], the “Inhibition of IL-6 expression” value (hIL-6 mRNA) was “Active”.

`COc1cc(OC)c2c(=O)[nH]c(-c3cc(C)c(OCCOCc4ccccc4)c(C)c3)nc2n1` [Example 13, 2-(4-(2-(benzyloxy)ethoxy)-3,5-dimethylphenyl)-5,7-dimethoxypyrido[2,3-d]pyrimidin-4(3H)-one] was tested, and the “Inhibition of IL-6 expression” value (hIL-6 mRNA) was “Active”.

With `Cc1cc(C)c2c(=O)[nH]c(-c3cc(C)c(OCCO)c(C)c3)nc2n1` [Example 14, 2-(4-(2-hydroxyethoxy)-3,5-dimethylphenyl)-5,7-dimethylpyrido[2,3-d]pyrimidin-4(3H)-one] the “Inhibition of IL-6 expression” value (hIL-6 mRNA) was “Active”.

With `Cc1cc(-c2nc3cc(OC(C)C)cc(OC(C)C)c3c(=O)[nH]2)cc(C)c1OCCO` [Example 16, 2-[4-(2-hydroxy-ethoxy)-3,5-dimethyl-phenyl]-5,7-diisopropoxy-3H-quinazolin-4-one] the “Inhibition of IL-6 expression” value (hIL-6 mRNA) was “Active”.

`COc1cc2nc(-c3cc(C)c(OCCO)c(C)c3)[nH]c(=O)c2c(OC)c1CN1CCOCC1.Cl` [Example 19, 2-[4-(2-hydroxy-ethoxy)-3,5-dimethylphenyl]-5,7-dimethoxy-6-morpholin-4-ylmethyl-3H-quinazolin-4-one hydrochloride] was tested, and the “Inhibition of IL-6 expression” value (hIL-6 mRNA) was “Active”.

With `COc1cc(OCCOCc2ccccc2)cc2nc(-c3ccc4oc(CO)cc4c3)[nH]c(=O)c12` [Example 24, 7-(2-benzyloxy-ethoxy)-2-(2-hydroxymethyl-benzofuran-5-yl)-5-methoxy-3H-quinazolin-4-one] the “Inhibition of IL-6 expression” value (hIL-6 mRNA) was “Active”.

For `COc1cc(OC)c2c(=O)[nH]c(-c3cc(C)c(OCC(=O)NCc4ccccc4)c(C)c3)nc2c1` [Example 27, N-benzyl-2-[4-(5,7-dimethoxy-4-oxo-3,4-dihydroquinazolin-2-yl)-2,6-dimethylphenoxy]acetamide], the “Inhibition of IL-6 expression” value (hIL-6 mRNA) was “Active”.

For `COc1cc(OC)c2c(=O)[nH]c(-c3cc(C)c(OCCNC=O)c(C)c3)cc2c1` [Example 41, N-{2-[4-(6,8-dimethoxy-1-oxo-1,2-dihydro-isoquinolin-3-yl)-2,6-dimethyl-phenoxy]-ethyl}-formamide], the “Inhibition of IL-6 expression” value (hIL-6 mRNA) was “Active”.

With `COc1cc(OC)c2c(=O)[nH]c(-c3cc(C)c(OCCNS(=O)(=O)C(C)C)c(C)c3)nc2c1` [Example 43, N-(2-(4-(5,7-dimethoxy-4-oxo-3,4-dihydroquinazolin-2-yl)-2,6-dimethylphenoxy)ethyl)propane-2-sulfonamide] the “Inhibition of IL-6 expression” value (hIL-6 mRNA) was “Active”.

In the case of `COc1cc(OC)c2c(=O)[nH]c(-c3ccc(OCCNC(C)=O)c(C)c3)nc2c1` [Example 45, N-(2-(4-(5,7-dimethoxy-4-oxo-3,4-dihydroquinazolin-2-yl)-2-methylphenoxy)ethyl)acetamide], the “Inhibition of IL-6 expression” value (hIL-6 mRNA) is reported as “Active”.

`COc1cc(OC)c2c(=O)[nH]c(-c3cc(C)c(OCCN(C)C)c(C)c3)nc2c1` [Example 46, 2-(4-(2-(dimethylamino)ethoxy)-3,5-dimethylphenyl)-5,7-dimethoxyquinazolin-4(3H)-one] was tested, and the “Inhibition of IL-6 expression” value (hIL-6 mRNA) was “Active”.

In the case of `COc1cc(OC)c2c(=O)[nH]c(-c3cc(C)c(OCCNC=O)c(C)c3)nc2c1` [Example 48, N-(2-(4-(5,7-dimethoxy-4-oxo-3,4-dihydroquinazolin-2-yl)-2,6-dimethylphenoxy)ethyl)formamide], the “Inhibition of IL-6 expression” value (hIL-6 mRNA) is reported as “Active”.

`COc1cc(OC)c2c(=O)[nH]c(-c3cc(C)c(OCCN(C)C=O)c(C)c3)nc2c1` [Example 49, N-(2-(4-(5,7-dimethoxy-4-oxo-3,4-dihydroquinazolin-2-yl)-2,6-dimethylphenoxy)ethyl)-N-methylformamide] was tested, and the “Inhibition of IL-6 expression” value (hIL-6 mRNA) was “Active”.

For `COc1cc(OC)c2c(=O)[nH]c(-c3cc(C)c(OCCNS(=O)(=O)N(C)C)c(C)c3)nc2c1` [Example 50, N-(2-(4-(5,7-dimethoxy-4-oxo-3,4-dihydroquinazolin-2-yl)-2,6-dimethylphenoxy)ethyl)dimethylamino-N-sulfonamide], the “Inhibition of IL-6 expression” value (hIL-6 mRNA) was “Active”.

In the case of `COc1cc(OC)c2c(=O)[nH]c(-c3cc(C)c(OCCNc4cc(C)on4)c(C)c3)nc2c1` [Example 52, 2-(3,5-dimethyl-4-(2-(5-methylisoxazol-3-ylamino)ethoxy)phenyl)-5,7-dimethoxyquinazolin-4(3H)-one], the “Inhibition of IL-6 expression” value (hIL-6 mRNA) is reported as “Active”.

`COc1cc(OC)c2c(=O)[nH]c(-c3cc(C)c(OCCNc4ncccn4)c(C)c3)nc2c1` [Example 53, 2-(3,5-dimethyl-4-(2-(pyrimidin-2-ylamino)ethoxy)phenyl)-5,7-dimethoxyquinazolin-4(3H)-one] was tested, and the “Inhibition of IL-6 expression” value (hIL-6 mRNA) was “Active”.

With `COc1cc(OC)c2c(=O)[nH]c(-c3cc(C)c(OCCNc4ccon4)c(C)c3)nc2c1` [Example 54, 2-(4-(2-(isoxazol-3-ylamino)ethoxy)-3,5-dimethylphenyl)-5,7-dimethoxyquinazolin-4(3H)-one] the “Inhibition of IL-6 expression” value (hIL-6 mRNA) was “Active”.

`COc1cc(OC)c2c(=O)[nH]c(-c3cc(C)c(OCCNc4nc(OC)cc(OC)n4)c(C)c3)nc2c1` [Example 55, 2-(4-(2-(4,6-dimethoxypyrimidin-2-ylamino)ethoxy)-3,5-dimethylphenyl)-5,7-dimethoxyquinazolin-4(3H)-one] was tested, and the “Inhibition of IL-6 expression” value (hIL-6 mRNA) was “Active”.

For `COc1cc(OC)c2c(=O)[nH]c(-c3cc(OC)c(CCCO)c(OC)c3)nc2c1` [Example 56, 2-[4-(3-hydroxy-propyl)-3,5-dimethoxyphenyl]-5,7-dimethoxy-3H-quinazolin-4-one], the “Inhibition of IL-6 expression” value (hIL-6 mRNA) was “Active”.

With `COc1cc(OC)c2c(=O)[nH]c(-c3ccc(CCCO)c(OC)c3)nc2c1` [Example 57, 2-[4-(3-hydroxy-propyl)-3-methoxy-phenyl]-5,7-dimethoxy-3H-quinazolin-4-one] the “Inhibition of IL-6 expression” value (hIL-6 mRNA) was “Active”.

— patent US9757368B2, “Anti-inflammatory agents” (Resverlogix Corp., priority 2009, dated 2017)
